Assay results: patent US10988459B2 (priority 2015, dated 2021)

target: human RIP1 kinase domain (2-375) (Homo sapiens (Human), UniProt Q13546); assay: biochemical; format: biochemical; details: Table 1; apparent Ki (Morrison tight-binding fit); 50 nM RIP1 kinase domain, 50 uM ATP, 2 hours incubation; read-out: RIP1 Ki
How it was run: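 Ki^app comes from Morrison tight-binding fits of fractional activity versus compound concentration. Activity was read as ADP production, via tracer displacement lowering fluorescence polarization (633 nm laser). Conditions: 2 h, 50 nM insect-cell-expressed enzyme, 50 uM ATP, 30 mM MgCl2, 1 mM DTT, 0.5% DMSO, pH 7.5 Hepes.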

human RIP1 kinase domain (2-375), sequence (Q13546 2-375): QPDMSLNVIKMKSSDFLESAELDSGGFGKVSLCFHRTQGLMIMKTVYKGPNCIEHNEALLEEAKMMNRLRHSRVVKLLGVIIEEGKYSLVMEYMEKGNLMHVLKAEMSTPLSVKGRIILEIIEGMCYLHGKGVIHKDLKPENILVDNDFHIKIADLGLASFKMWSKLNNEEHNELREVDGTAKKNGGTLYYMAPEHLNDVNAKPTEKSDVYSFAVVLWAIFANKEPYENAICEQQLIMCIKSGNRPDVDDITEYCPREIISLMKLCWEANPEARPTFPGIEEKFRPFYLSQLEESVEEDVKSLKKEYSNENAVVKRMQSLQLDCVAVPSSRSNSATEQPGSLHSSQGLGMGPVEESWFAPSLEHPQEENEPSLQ

First: CN1C(=O)[C@@H](NC(=O)c2cc3c(cn2)COC3(C)C)COc2ccccc21 [Example 22, (S)-1,1-dimethyl-N-(5-methyl-4-oxo-2,3,4,5-tetrahydrobenzo[b][1,4]oxazepin-3-yl)-1,3-dihydrofuro[3,4-c]pyridine-6-carboxamide]
Second: CC1Cn2c(cnc2C(=O)N[C@H]2COc3ccccc3N(C)C2=O)CO1 (stereo partly drawn) [Example 10, 6-methyl-N—((S)-5-methyl-4-oxo-2,3,4,5-tetrahydrobenzo[b][1,4]oxazepin-3-yl)-6,8-dihydro-5H-imidazo[5,1-c][1,4]oxazine-3-carboxamide]
The Ki of the first is 2.9-fold lower: 898 nM for the first, 2600 nM for the second. The first binds more tightly here.

First: CN1C(=O)[C@@H](NC(=O)c2nnc3ccc(Cl)nn23)COc2ccccc21 [Example 52, (S)-6-chloro-N-(5-methyl-4-oxo-2,3,4,5-tetrahydrobenzo[b][1,4]oxazepin-3-yl)-[l,2,4]triazolo[4,3-b]pyridazinc-3-carboxamide]
Second: C[C@H]1CCc2noc(C(=O)N[C@H]3COc4ccccc4N(C)C3=O)c2C1 [Example 69, (S)-5-methyl-N-((S)-5-methyl-4-oxo-2,3,4,5-tetrahydrobenzo[b][1,4]oxazepin-3-yl)-4,5,6,7-tetrahydrobenzo[c]isoxazole-3-carboxamide]
The Ki of the first is 14-fold higher: 1200 nM for the first, 84.5 nM for the second. The second binds more tightly here.

`C[C@H]1CCc2onc(C(=O)N[C@H]3COc4ccccc4N(C)C3=O)c2C1` [Example 68, (S)-5-methyl-N-((S)-5-methyl-4-oxo-2,3,4,5-tetrahydrobenzo[b][1,4]oxazepin-3-yl)-4,5,6,7-tetrahydrobenzo[d]isoxazole-3-carboxamide] gave a Ki of 53.8 nM.

same assay, conditions: human RIP1 kinase domain (2-375), 50 uM ATP, 2 hours incubation, Transcreener ADP assay; read-out: RIP1 Ki

Compared with `Cc1cnn2c1N(C)C(=O)C(NC(=O)c1ncn(Cc3ccccc3)n1)CC2` (stereo not shown) [Example 107, 1-benzyl-N-(3,4-dimethyl-5-oxo-5,6,7,8-tetrahydro-4H-pyrazolo[1,5-a][1,3]diazepin-6-yl)-1H-1,2,4-triazole-3-carboxamide], `CN1C(=O)[C@@H](NC(=O)c2nnn3c2CC(C(F)(F)F)CC3)COc2ccccc21` (stereo partly drawn) [Example 192, N—((S)-5-methyl-4-oxo-2,3,4,5-tetrahydrobenzo[b][1,4]oxazepin-3-yl)-5-(trifluoromethyl)-4,5,6,7-tetrahydro-[1,2,3]triazolo[1,5-a]pyridine-3-carboxamide] is 1.5-fold higher in Ki: 69.7 nM for the first, 105 nM for the second. The first binds more tightly here.

Going from `CN1C(=O)[C@@H](NC(=O)c2cc3c(cn2)CO[C@]32CCOC2)COc2ccccc21` [Example 169, (R)-N-((S)-5-methyl-4-oxo-2,3,4,5-tetrahydrobenzo[b][1,4]oxazepin-3-yl)-4,5-dihydro-2H,3′H-spiro[furan-3,1′-furo[3,4-c]pyridine]-6′-carboxamide] to `Cc1cc(F)c2c(c1)OC[C@H](NC(=O)c1n[nH]c3c1C[C@H](C(F)(F)F)CC3)C(=O)N2` [Example 89, (R)—N—((S)-6-fluoro-8-methyl-4-oxo-2,3,4,5-tetrahydrobenzo[b][1,4]oxazepin-3-yl)-5-(trifluoromethyl)-4,5,6,7-tetrahydro-1H-indazole-3-carboxamide], the Ki rises from 19.3 nM to 55.4 nM (2.9-fold).

same assay, conditions: human RIP1 kinase domain (2-375), Transcreener ADP assay, 50 uM ATP, 2 hours incubation; read-out: RIP1 Ki

Compared with `CN1C(=O)[C@H](NC(=O)c2ncn(Cc3ccc(F)cc3)n2)CCn2nc([C@H]3CC3(F)F)cc21` [Example 318, N—((R)-2-((R)-2,2-difluorocyclopropyl)-4-methyl-5-oxo-5,6,7,8-tetrahydro-4H-pyrazolo[1,5-a][1,3]diazepin-6-yl)-1-(4-fluorobenzyl)-1H-1,2,4-triazole-3-carboxamide], `CN1C(=O)[C@@H](NC(=O)c2ncn(Cc3ccc(F)cc3)n2)CCn2nc([C@H]3CC3(F)F)cc21` [Example 317, N—((S)-2-((R)-2,2-difluorocyclopropyl)-4-methyl-5-oxo-5,6,7,8-tetrahydro-4-pyrazolo[1,5-a][1,3]diazepin-6-yl)-1-(4-fluorobenzyl)-1H-1,2,4-triazole-3-carboxamide] is 260-fold higher in Ki: 25.3 nM for the first, 6610 nM for the second.

Going from `CN1C(=O)[C@@H](NC(=O)c2ncn(Cc3ccc(Cl)cc3Cl)n2)CCn2nc(C3CC3)cc21` [Example 307, (S)—N-(2-cyclopropyl-4-methyl-5-oxo-5,6,7,8-tetrahydro-4H-pyrazolo[1,5-a][1,3]diazepin-6-yl)-1-(2,4-dichlorobenzyl)-1H-1,2,4-triazole-3-carboxamide] to `Cc1nn2c(c1C)N(C)C(=O)[C@@H](NC(=O)c1ncn(Cc3ccccc3)n1)CC2` [Example 274, (S)-1-benzyl-N-(2,3,4-trimethyl-5-oxo-5,6,7,8-tetrahydro-4H-pyrazolo[1,5-a][1,3]diazepin-6-yl)-1H-1,2,4-triazole-3-carboxamide], the Ki rises from 8.5 nM to 39.5 nM (4.6-fold).

`Cc1cc2n(n1)CC[C@H](NC(=O)c1nnc(Cc3ccccc3)[nH]1)C(=O)N2C` [Example 240, (S)-5-benzyl-N-(2,4-dimethyl-5-oxo-5,6,7,8-tetrahydro-4H-pyrazolo[1,5-a][1,3]diazepin-6-yl)-4H-1,2,4-triazole-3-carboxamide] gave a Ki of 84.6 nM.

same assay, conditions: read-out: RIP1 Ki

For `CN1C(=O)[C@@H](NC(=O)c2nnc3ccc(C(F)(F)C(F)(F)F)nn23)COc2ccccc21` [Example 114, (S)—N-(5-methyl-4-oxo-2,3,4,5-tetrahydrobenzo[b][1,4]oxazepin-3-yl)-6-(perfluoroethyl)-[1,2,4]triazolo[4,3-b]pyridazine-3-carboxamide], the Ki was 68.3 nM.

same assay, conditions: tight-binding apparent inhibition constant; human RIP1 kinase domain (2-375) 50 nM, 50 uM ATP, 2 hours; read-out: Ki

Going from `Cc1cc(F)c2c(c1)OC[C@H](NC(=O)c1nc3n(n1)[C@@H](C(C)C)CC3)C(=O)N2` (single isomer, unassigned) [Example 354] to `CCC1CCc2nc(C(=O)N[C@H]3COc4cc(C)cc(F)c4NC3=O)nn21` (stereo partly drawn) [Example 349, 5-ethyl-N-[(3S)-6-fluoro-8-methyl-4-oxo-3,5-dihydro-2H-1,5-benzoxazepin-3-yl]-6,7-dihydro-5H-pyrrolo[1,2-b][1,2,4]triazole-2-carboxamide], the Ki rises from 4.5 nM to 33.5 nM (7.4-fold).

Going from `Cc1cc2n(n1)CC[C@H](NC(=O)c1ncn(Cc3ccccn3)n1)C(=O)N2C` [Example 651, 1-(2-pyridylmethyl)-N-(6S)-2,4-dimethyl-5-oxo-7,8-dihydro-6H-pyrazolo[1,5-a][1,3]diazepin-6-yl-1,2,4-triazole-3-carboxamide] to `CCc1cc2n(n1)CCC(NC(=O)c1ncn(Cc3ccccc3)n1)C(=O)N2C` (stereo not shown) [Example 460, 1-Benzyl-N-(2-ethyl-4-methyl-5-oxo-5,6,7,8-tetrahydro-4H-pyrazolo[1,5-a][1,3]diazepin-6-yl)-1H-1,2,4-triazole-3-carboxamide], the Ki falls from 290 nM to 41 nM (7.1-fold). The second binds more tightly here.

First: Cc1cc2n(n1)CC[C@H](NC(=O)c1ncn(C[C@H]3C[C@H](C(F)(F)F)C3)n1)C(=O)N2C [Example 483]
Second: Cc1cc2n(n1)CC[C@H](NC(=O)c1ncn(C[C@H]3C[C@H](C)C3)n1)C(=O)N2C [Example 498, N—((S)-2,4-dimethyl-5-oxo-5,6,7,8-tetrahydro-4H-pyrazolo[1,5-a][1,3]diazepin-6-yl)-1-(((1S,3R)-3-methylcyclobutyl)methyl)-1H-1,2,4-triazole-3-carboxamide]
The Ki of the first is 3.6-fold lower: 110 nM for the first, 400 nM for the second.

Going from `Cc1cn2c(n1)N(C)C(=O)C(NC(=O)c1ncn(Cc3ccccc3)n1)CC2` (stereo not shown) [Example 535, 1-benzyl-N-(2,9-dimethyl-8-oxo-6,7,8,9-tetrahydro-5H-imidazo[1,2-a][1,3]diazepin-7-yl)-1H-1,2,4-triazole-3-carboxamide] to `CN1C(=O)[C@@H](NC(=O)c2ncn(Cc3cccc(F)c3F)n2)CCn2nccc21` (racemic) [Example 342, 1-[(2,3-difluorophenyl)methyl]-N-[rac-(6S)-4-methyl-5-oxo-7,8-dihydro-6H-pyrazolo[1,5-a][1,3]diazepin-6-yl]-1,2,4-triazole-3-carboxamide], the Ki falls from 130 nM to 10.9 nM (12-fold).

First: Cc1cc2n(n1)CC[C@H](NC(=O)c1nc3n(n1)CCCC3c1ccccc1)C(=O)N2C (stereo partly drawn) [Example 554, 8-phenyl-N-[(6S)-2,4-dimethyl-5-oxo-7,8-dihydro-6H-pyrazolo[1,5-a][1,3]diazepin-6-yl]-5,6,7,8-tetrahydro-[1,2,4]triazolo[1,5-a]pyridine-2-carboxamide]
Second: CN1C(=O)[C@@H](NC(=O)c2nc3n(n2)[C@@H](c2ccccc2F)CC3)CCn2nccc21 [Example 668, (5R)-5-(2-fluorophenyl)-N-[(6S)-4-methyl-5-oxo-7,8-dihydro-6H-pyrazolo[1,5-a][1,3]diazepin-6-yl]-6,7-dihydro-5H-pyrrolo[1,2-b][1,2,4]triazole-2-carboxamide]
The Ki of the first is 15-fold higher: 330 nM for the first, 22 nM for the second.

First: CN1C(=O)[C@@H](NC(=O)c2ncc3cnn(-c4ccccc4)c3n2)COc2ccccc21 [Example 536, phenyl-N-[(3S)-5-methyl-4-oxo-2,3-dihydro-1,5-benzoxazepin-3-yl]pyrazolo[3,4-d]pyrimidine-6-carboxamide]
Second: CN1C(=O)[C@@H](NC(=O)c2ncc3c(n2)[C@@](C)(CC(F)(F)F)OC3)COc2ccccc21 (racemic) [Example 691, rac-(7R)-7-methyl-N-[rac-(3S)-5-methyl-4-oxo-2,3-dihydro-1,5-benzoxazepin-3-yl]-7-(2,2,2-trifluoroethyl)-5H-furo[3,4-d]pyrimidine-2-carboxamide]
The Ki of the first is 6.5-fold lower: 3.5 nM for the first, 22.8 nM for the second.

Going from `CN1C(=O)[C@@H](NC(=O)c2nnc(Cc3cccc(F)c3F)[nH]2)CCn2nc(C(F)(F)F)cc21` [Example 524] to `O=C(N[C@H]1CCc2cc(F)cc(F)c2NC1=O)c1nc2n(n1)CC[C@@H]2c1ccccc1` (single isomer, unassigned) [Example 627], the Ki rises from 72 nM to 160 nM (2.2-fold).

Compared with `O=C(N[C@H]1CCc2cc(F)cc(F)c2NC1=O)c1nc2n(n1)CCO[C@@H]2c1ccccc1` [Example 639, (8R)-8-phenyl-N-[(3S)-7,9-difluoro-2-oxo-1,3,4,5-tetrahydro-1-benzazepin-3-yl]-6,8-dihydro-5H-[1,2,4]triazolo[5,1-c][1,4]oxazine-2-carboxamide], `O=C(N[C@H]1CCc2cc(F)cc(F)c2NC1=O)c1nc2n(n1)[C@@H](C(F)(F)F)CCC2` (single isomer, unassigned) [Example 429] is 2-fold lower in Ki: 420 nM for the first, 213 nM for the second. The second binds more tightly here.
